Where two headings read alike, the source gives them in different places.
Key:
[1] = system: phosphorylated 4E-BP1 Thr37/46 (p4E-BP1 Thr37/46), mTORC1 activity, PC3 cells; test: mTOR target engagement assay, immunofluorescent cell-based, p4E-BP1 Thr37/46 readout (mTORC1 activity); conditions: PC3 cells, read-out: p4E-BP1 Thr37/46 IC50
Outline: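 Read-out is fluorescence intensity of immunostained p4E-BP1 Thr37/46 in fixed PC3 cells, fitted to a logistic curve for IC50 with DMSO-only wells as top. Cells had been exposed to serial compound dilutions for ninety minutes at 37° C in 5% FBS medium with 0.25% DMSO.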

[2] = system: phosphorylated AKT Ser473 (pAKT S473), mTORC2 activity, PC3 cells; test: mTOR target engagement assay, immunofluorescent cell-based, pAKT S473 readout (mTORC2 activity); conditions: PC3 cells
Outline: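 After blocking, cells were stained overnight at 4 °C with anti-pAKT S473 antibody, then a fluorescent secondary; inhibition was read as reduced fluorescence intensity.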

Row | SMILES | IC50 ([1]; Homo sapiens, PC-3, Table 3-1) [nM] | IC50 ([2]; Homo sapiens, PC-3, Table 3-1) [nM] | IC50 ([1]; Table 3-1) [nM] | IC50 ([2]; Table 3-1) [nM]
1 | COCCOc1ccc(-c2ccc(-c3cnn4c(N)c(S(C)(=O)=O)c([C@@H]5C[C@H]6CC[C@@H](C5)N6C(=O)c5nnc[nH]5)nc34)cn2)cc1 [Compound 3.56, ((1R,3s,5S)-3-(7-amino-3-(6-(4-(2-methoxyethoxy)phenyl)pyridin-3-yl)-6-(methylsulfonyl)pyrazolo[1,5-a]pyrimidin-5-yl)-8-azabicyclo[3.2.1]octan-8-yl)(4H-1,2,4-triazol-3-yl)methanone] | 100 to 1000 | 100 to 1000 |  | 
2 | Cn1cc2cc(-c3ccc(-c4cnn5c(N)c(S(C)(=O)=O)c([C@@H]6C[C@H]7CC[C@@H](C6)N7C(=O)c6nnc[nH]6)nc45)cn3)ccc2n1 [Compound 3.57, ((1R,3s,5S)-3-(7-amino-3-(6-(2-methyl-2H-indazol-5-yl)pyridin-3-yl)-6-(methylsulfonyl)pyrazolo[1,5-a]pyrimidin-5-yl)-8-azabicyclo[3.2.1]octan-8-yl)(4H-1,2,4-triazol-3-yl)methanone] |  |  | 1 to 100 | 1 to 100
3 | COc1ncc(-c2ccc(-c3cnn4c(N)c(S(C)(=O)=O)c([C@@H]5C[C@H]6CC[C@@H](C5)N6C(=O)c5nnc[nH]5)nc34)cn2)cn1 [Compound 3.58, ((1R,3s,5S)-3-(7-amino-3-(6-(2-methoxypyrimidin-5-yl)pyridin-3-yl)-6-(methylsulfonyl)pyrazolo[1,5-a]pyrimidin-5-yl)-8-azabicyclo[3.2.1]octan-8-yl)(4H-1,2,4-triazol-3-yl)methanone] |  |  | 1000 to 10000 | 1000 to 10000
4 | COc1cc(F)c(-c2ccc(-c3cnn4c(N)c(S(C)(=O)=O)c([C@@H]5C[C@H]6CC[C@@H](C5)N6C(=O)c5nnc[nH]5)nc34)cn2)cc1F [Compound 3.59, ((1R,3s,5S)-3-(7-amino-3-(6-(2,5-difluoro-4-methoxyphenyl)pyridin-3-yl)-6-(methylsulfonyl)pyrazolo[1,5-a]pyrimidin-5-yl)-8-azabicyclo[3.2.1]octan-8-yl)(4H-1,2,4-triazol-3-yl)methanone] | 1 to 100 | 1 to 100 |  | 
5 | CCOc1ccc(-c2ccc(-c3cnn4c(N)c(S(C)(=O)=O)c([C@@H]5C[C@H]6CC[C@@H](C5)N6C(=O)c5nnc[nH]5)nc34)cn2)cc1 [Compound 3.60, ((1R,3s,5S)-3-(7-amino-3-(6-(4-ethoxyphenyl)pyridin-3-yl)-6-(methylsulfonyl)pyrazolo[1,5-a]pyrimidin-5-yl)-8-azabicyclo[3.2.1]octan-8-yl)(4H-1,2,4-triazol-3-yl)methanone] | 1 to 100 | 1 to 100 |  | 
6 | CS(=O)(=O)c1c([C@@H]2C[C@H]3CC[C@@H](C2)N3C(=O)c2nnc[nH]2)nc2c(-c3ccc(-c4ccc(OC5CC5)cc4)nc3)cnn2c1N [Compound 3.61, ((1R,3s,5S)-3-(7-amino-3-(6-(4-cyclopropoxyphenyl)pyridin-3-yl)-6-(methylsulfonyl)pyrazolo[1,5-a]pyrimidin-5-yl)-8-azabicyclo[3.2.1]octan-8-yl)(4H-1,2,4-triazol-3-yl)methanone] | 100 to 1000 | 100 to 1000 |  | 
7 | [2H]C([2H])([2H])Oc1ccc(-c2ccc(-c3ccn4c(N)c(S(C)(=O)=O)c([C@@H]5C[C@H]6CC[C@@H](C5)N6C(=O)c5nnc[nH]5)nc34)cn2)cc1 [Compound 3.62, ((1R,3s,5S)-3-(7-amino-3-(6-(4-methoxy-(D3)-phenyl)pyridin-3-yl)-6-(methylsulfonyl)pyrazolo[1,5-a]pyrimidin-5-yl)-8-azabicyclo[3.2.1]octan-8-yl)(4H-1,2,4-triazol-3-yl)methanone] | 1 to 100 | 1 to 100 |  | 
8 | CS(=O)(=O)c1c([C@@H]2C[C@H]3CC[C@@H](C2)N3C(=O)c2nnc[nH]2)nc2c(-c3ccc(-c4ccc(OCF)cc4)nc3)cnn2c1N [Compound 3.63, ((1R,3s,5S)-3-(7-amino-3-(6-(4-(fluoromethoxy)phenyl)pyridin-3-yl)-6-(methylsulfonyl)pyrazolo[1,5-a]pyrimidin-5-yl)-8-azabicyclo[3.2.1]octan-8-yl)(4H-1,2,4-triazol-3-yl)methanone] |  |  | 1 to 100 | 1 to 100
9 | CS(=O)(=O)c1c([C@@H]2C[C@H]3CC[C@@H](C2)N3C(=O)c2nnc[nH]2)nc2c(-c3ccc(-c4ccncc4)nc3)cnn2c1N [Compound 3.64, ((1R,3s,5S)-3-(3-(2,4′-bipyridin-5-yl)-7-amino-6-(methylsulfonyl)pyrazolo[1,5-a]pyrimidin-5-yl)-8-azabicyclo[3.2.1]octan-8-yl)(4H-1,2,4-triazol-3-yl)methanone] |  |  | 1000 to 10000 | 1000 to 10000
10 | CS(=O)(=O)c1c([C@@H]2C[C@H]3CC[C@@H](C2)N3C(=O)CO)nc2c(-c3ccc(-c4ccncc4)nc3)cnn2c1N [Compound 3.65, 1-((1R,3s,5S)-3-(3-(2,4′-bipyridin-5-yl)-7-amino-6-(methylsulfonyl)pyrazolo[1,5-a]pyrimidin-5-yl)-8-azabicyclo[3.2.1]octan-8-yl)-2-hydroxyethanone] | 1000 to 10000 | 1000 to 10000 |  | 
11 | Cc1ccc(-c2cnn3c(N)c(S(C)(=O)=O)c([C@@H]4C[C@H]5CC[C@@H](C4)N5C(=O)c4nnc[nH]4)nc23)cn1 [Compound 3.68, ((1R,3s,5S)-3-(7-amino-3-(6-methylpyridin-3-yl)-6-(methylsulfonyl)pyrazolo[1,5-a]pyrimidin-5-yl)-8-azabicyclo[3.2.1]octan-8-yl)(4H-1,2,4-triazol-3-yl)methanone] |  |  | 100 to 1000 | 100 to 1000
12 | CS(=O)(=O)c1c([C@@H]2C[C@H]3CC[C@@H](C2)N3C(=O)c2nnc[nH]2)nc2c(-c3cccnc3)cnn2c1N [Compound 3.69, ((1R,3s,5S)-3-(7-amino-6-(methylsulfonyl)-3-(pyridin-3-yl)pyrazolo[1,5-a]pyrimidin-5-yl)-8-azabicyclo[3.2.1]octan-8-yl)(4H-1,2,4-triazol-3-yl)methanone] |  |  | 100 to 1000 | 100 to 1000
13 | COCCOCC(=O)N1[C@@H]2CC[C@H]1C[C@H](c1nc3c(-c4ccc(-c5ccccc5)nc4)cnn3c(N)c1S(C)(=O)=O)C2 [Compound 3.72, 1-((1R,3s,5S)-3-(7-amino-6-(methylsulfonyl)-3-(6-phenylpyridin-3-yl)pyrazolo[1,5-a]pyrimidin-5-yl)-8-azabicyclo[3.2.1]octan-8-yl)-2-(2-methoxyethoxy)ethanone] | 1000 to 10000 | 1000 to 10000 |  | 
14 | CS(=O)(=O)c1c([C@@H]2C[C@H]3CC[C@@H](C2)N3C(=O)c2cc(C(F)(F)F)n[nH]2)nc2c(-c3ccc(-c4ccccc4)nc3)cnn2c1N [Compound 3.73, ((1R,3s,5S)-3-(7-amino-6-(methylsulfonyl)-3-(6-phenylpyridin-3-yl)pyrazolo[1,5-a]pyrimidin-5-yl)-8-azabicyclo[3.2.1]octan-8-yl)(3-(trifluoromethyl)-1H-pyrazol-5-yl)methanone] | > 10000 | 1000 to 10000 |  | 
15 | CS(=O)(=O)c1c([C@@H]2C[C@H]3CC[C@@H](C2)N3C(=O)c2ccn[nH]2)nc2c(-c3ccc(-c4ccccc4)nc3)cnn2c1N [Compound 3.74, ((1R,3s,5S)-3-(7-amino-6-(methylsulfonyl)-3-(6-phenylpyridin-3-yl)pyrazolo[1,5-a]pyrimidin-5-yl)-8-azabicyclo[3.2.1]octan-8-yl)(1H-pyrazol-5-yl)methanone] | 1 to 100 | 1 to 100 |  | 
16 | CS(=O)(=O)c1c([C@@H]2C[C@H]3CC[C@@H](C2)N3C(=O)c2cc(N)n[nH]2)nc2c(-c3ccc(-c4ccccc4)nc3)cnn2c1N [Compound 3.75, (3-amino-1H-pyrazol-5-yl)((1R,3s,5S)-3-(7-amino-6-(methylsulfonyl)-3-(6-phenylpyridin-3-yl)pyrazolo[1,5-a]pyrimidin-5-yl)-8-azabicyclo[3.2.1]octan-8-yl)methanone] | 1 to 100 | 1 to 100 |  | 
17 | CS(=O)(=O)c1c([C@@H]2C[C@H]3CC[C@@H](C2)N3C(=O)c2cc3cnccc3[nH]2)nc2c(-c3ccc(-c4ccccc4)nc3)cnn2c1N [Compound 3.76, ((1R,3s,5S)-3-(7-amino-6-(methylsulfonyl)-3-(6-phenylpyridin-3-yl)pyrazolo[1,5-a]pyrimidin-5-yl)-8-azabicyclo[3.2.1]octan-8-yl)(1H-pyrrolo[3,2-c]pyridin-2-yl)methanone] | 1 to 100 | 1 to 100 |  | 
18 | CS(=O)(=O)c1c([C@@H]2C[C@H]3CC[C@@H](C2)N3C(=O)c2cc3cccnc3[nH]2)nc2c(-c3ccc(-c4ccccc4)nc3)cnn2c1N [Compound 3.77, ((1R,3s,5S)-3-(7-amino-6-(methylsulfonyl)-3-(6-phenylpyridin-3-yl)pyrazolo[1,5-a]pyrimidin-5-yl)-8-azabicyclo[3.2.1]octan-8-yl)(1H-pyrrolo[2,3-b]pyridin-2-yl)methanone] | > 10000 | 1000 to 10000 |  | 
19 | CS(=O)(=O)c1c([C@@H]2C[C@H]3CC[C@@H](C2)N3C(=O)c2ncc[nH]2)nc2c(-c3ccc(-c4ccccc4)nc3)cnn2c1N [Compound 3.78, ((1R,3s,5S)-3-(7-amino-6-(methylsulfonyl)-3-(6-phenylpyridin-3-yl)pyrazolo[1,5-a]pyrimidin-5-yl)-8-azabicyclo[3.2.1]octan-8-yl)(1H-imidazol-2-yl)methanone] | 100 to 1000 | 100 to 1000 |  | 
20 | Cc1n[nH]cc1C(=O)N1[C@@H]2CC[C@H]1C[C@H](c1nc3c(-c4ccc(-c5ccccc5)nc4)cnn3c(N)c1S(C)(=O)=O)C2 [Compound 3.80, ((1R,3s,5S)-3-(7-amino-6-(methylsulfonyl)-3-(6-phenylpyridin-3-yl)pyrazolo[1,5-a]pyrimidin-5-yl)-8-azabicyclo[3.2.1]octan-8-yl)(3-methyl-1H-pyrazol-4-yl)methanone] | 1 to 100 | 1 to 100 |  | 
